Assay results reported in patent US7772258B2, “Agent for treatment of allergic eye disease” (Nikken Chemicals Co., Ltd., priority 2001, dated 2010).

Tested on: Allergic Conjunctivitis Model
Experiment: Alleviating action for allergic conjunctivitis model (Itch-Scratch response after OA challenge)
Type: in vivo
Conditions: OA-sensitized Wistar rats, scratching counted over 20 minutes after OA
Experimental: or the experiment, Wistar rats (CLEA Japan) were used. The rats were sensitized by intraperitoneal administration of ovalbumin (OA, made by Sigma) in an amount of 100 μg and 10 mg of aluminum hydroxide (Alum, made by Pierce Co.) suspended in 1 mL of physiological saline. Allergic conjunctivitis was induced using rats after 3 weeks from the date of sensitization by dropping into the eyes of 10 μg OA solution prepared by physiological saline to a concentration of 30 mg/mL. The medicine was suspended at a concentration of 1.0 w/v % in physiological saline and dropped into the eyes 10 minutes before OA challenge to induce conjunctivitis (as a positive control drug, diphenhydramine suspended in a concentration of 0.3 w/v % in physiological saline was dropped in the eyes 10 minutes before OA challenge to induce conjunctivitis). For the effect of the compound, the number of times of the action of using the hind legs to scratch the eye area (Itch-Scratch response; considered to be an indicator of itchiness) observed in the 20-minute period after dropping the OA was counted and used to find the rate of inhibition of itchiness by the following formula: Control group: presensitized rats in whose eyes physiological saline is dropped 10 minutes before using OA to induce conjunctivitis Untreated group: unsensitized rats in whose eyes physiological saline is dropped. Calculation Formula: Inhibition rate(%)=100−(test substance group−untreated group/(control group−untreated group)×100

[1] = test substance 1.0 w/v % suspension in physiological saline dropped into the eyes 10 minutes before OA challenge

Row | Structure (SMILES) | Inhibition rate (%) of Itch-Scratch response [1] [%] | Inhibition rate (%) of Itch-Scratch response (positive control 0.3 w/v % suspension in physiological saline dropped into the eyes 10 minutes before OA challenge) [%]
1 | COc1ccc(NC2=C(C)C(=O)CC2)cc1O[C@@H]1C[C@H]2CC[C@@H]1C2 (racemic) [Compound 2, 3-[3-[(1RS,2RS,4SR)-bicyclo[2.2.1]hept-2-yloxy]-4-methoxyanilino]-2-methyl-2-cyclopenten-1-one] | 62.9 | 
2 | CCC1=C(Nc2ccc(OC)c(O[C@@H]3C[C@H]4CC[C@@H]3C4)c2)CCC1=O (racemic) [Compound 3, 3-[3-[(1RS,2RS,4SR)-bicyclo[2.2.1]hept-2-yloxy]-4-methoxyanilino]-2-ethyl-2-cyclopenten-1-one] | 63.5 | 
3 | COc1ccc(N(Cc2ccc3ccccc3c2)C2=CC(=O)CC2)cc1OC1CCCC1 [Compound 1, 3-[3-cyclopentyloxy-4-methoxy-N-(2-naphthylmethyl)anilino]-2-cyclopenten-1-one] | 82.7 | 
4 | CN(C)CCOC(c1ccccc1)c1ccccc1 [Diphenhydramine, diphenhydramine, reference compound] |  | 64.6
5 | COc1ccc(NC2=C(C)C(=O)CC2)cc1O[C@@H]1C[C@H]2CC[C@@H]1C2 [Compound 4, (−)-3-[3-[(1R,2R,4S)-bicyclo[2.2.1]hept-2-yloxy]-4-methoxyanilino]-2-methyl-2-cyclopenten-1-one] | 68.6 | 
6 | COc1ccc(NC2=C(C)C(=O)CC2)cc1O[C@H]1C[C@@H]2CC[C@H]1C2 [Compound 5, (+)-3-[3-[(1S,2S,4R)-bicyclo[2.2.1]hept-2-yloxy]-4-methoxyanilino]-2-methyl-2-cyclopenten-1-one] | 97.1 | 
